Data reported in patent publication US12479784B2, “Trisphenol derivative” (HONSHU CHEMICAL INDUSTRY CO., LTD., priority 2020, dated 2025).

Key:
[1] = Evaluation Test 1: Solubility at 30° C. in ethyl lactate; type: physicochemical; conditions: for Solubility (g/100 g, 30° C.): in ethyl lactate, stirred 3 hours, HPLC quantification
Description: (4) Conditions of solubility measurement and analysis of comparative compounds (x) and (y)
<Evaluation Test 1: Solubility at 30° C.>
For compound (C1) and compound (C2) obtained in Examples and the following two compounds having six functional groups likewise and reported as crosslinking agents, the solubility at 30° C. in ethyl lactate widely used as a resist solvent was measured. The following compounds are referred to as “comparative compound (x)” and “comparative compound (y)”.
A cross-shaped stirrer and 10 g of ethyl lactate were added to a 100 ml test tube, and after 10 g of comparative compound (x) (or (y)) was added, a siphon was attached. Under nitrogen purge, the test tube was set in a pre-conditioned water bath at 30° C. and stirred with the stirrer for 3 hours. After the stirring for 3 hours, the internal solution was sampled with a pipette, and solids were filtered off from the sampled solution through a syringe filter to put a filtrate in a 50 ml measuring flask. This was diluted to the 50 ml mark with methanol for HPLC and analyzed with a high-performance liquid chromatography analyzer. From the results obtained, comparative compound (x) (or (y)) in the filtrate was quantified using the peak area of comparative compound (x) (or (y)), and the solubility (=quantitative value (mg) of comparative compound (x) or (y)/(weight (mg) of filtrate put in 50 ml measuring flask through syringe filter-quantitative value (mg) of comparative compound (x) or (y)) was calculated.
Method of constructing calibration curve: comparative compound (x) (or (y)) used in the test was analyzed by HPLC, and an approximate straight line obtained by plotting the peak area of comparative compound (x) (or (y) on the horizontal axis and the concentration (mg/50 ml) of comparative compound (x) (or (y)) on the vertical axis with “intercept=0” was used as a calibration curve of comparative compound (x) (or (y)).

[2] = Evaluation Test 2: Low-temperature storage stability (dissolution stability) of ethyl lactate solutions; type: physicochemical; parameters: key to Solution storage test 5° C. / Solution storage test −5° C.: ∘: Completely dissolved, and neither precipitation of crystals nor separation of oily components can be visually observed.; x: Precipitation of crystals or separation of oily components can be visually observed; conditions: for Solution storage test −5° C. / Solution storage test 5° C.: ethyl lactate solution; for Solution storage test −5° C.: freezer −5° C.; for Solution storage test −5° C. / Solution storage test 5° C. / Crystallization on storage, in words: 30 days; for Solution storage test 5° C.: refrigerator 5° C.; for Crystallization on storage, in words: ethyl lactate solutions, both at 5° C. and −5° C.
Description: <Evaluation Test 2: Low-Temperature Storage Stability (Dissolution Stability)>
In a 50 ml screw tube, 4.29 g of compound (C1), the inventive compound, and 5.71 g of ethyl lactate were placed and mixed, and the screw tube was put in a water bath set at 30° C. and stirred by shaking it by hand. Complete dissolution was visually observed, thus preparing an ethyl lactate solution with a compound (C1) concentration of 42.9 wt %.
In the same manner as for compound (C1), an ethyl lactate solution with a compound (C2) concentration of 40 wt %, an ethyl lactate solution with a compound (C2) concentration of 50 wt %, and an ethyl lactate solution with a compound (y) concentration of 40 wt % were prepared.
These solutions were subjected to solution storage tests in a refrigerator (5° C.) and a freezer (−5° C.) for 30 days.
∘: Completely dissolved, and neither precipitation of crystals nor separation of oily components can be visually observed.
x: Precipitation of crystals or separation of oily components can be visually observed.

Solubility (g/100 g, 30° C.) [1]	Solution storage test −5° C. ([2]; concentration 40.0 wt %)	Solution storage test 5° C. ([2]; concentration 40.0 wt %)	Crystallization on storage, in words [2]	Re-dissolution of precipitated crystals ([2]; test sample with precipitated crystals left at room temperature (22° C.) for one day)	Solubility in ethyl lactate relative to comparative compound (x) ([1]; ethyl lactate)	Solubility in ethyl lactate relative to comparative compound (y) ([1]; ethyl lactate)	Solubility (g/100 g, 30° C.) ([1]; listed as compound (C2))	Solution storage test −5° C. ([2]; concentration 50.0 wt %)	Solution storage test 5° C. ([2]; concentration 50.0 wt %)	Compound
84.0 g/100 g	x	x	experienced crystal precipitation	did not dissolve again	–	–	–	–	–	COCc1cc(C(C)(c2cc(COC)c(O)c(COC)c2)c2cc(COC)c(O)c(COC)c2)cc(COC)c1O [(y), reference compound]
38.7 g/100 g	–	–	–	–	–	–	–	–	–	COCc1cc(C(C)(C)c2ccc(C(C)(c3cc(COC)c(O)c(COC)c3)c3cc(COC)c(O)c(COC)c3)cc2)cc(COC)c1O [Comparative compound (x), reference compound]
> 100 g/100 g	∘	∘	did not crystallize at all	–	more than twice higher	more soluble	more than 100.0 g/100 g	∘	∘	COCc1cc(CCC(C)(c2cc(COC)c(O)c(C3CCCCC3)c2)c2cc(COC)c(O)c(C3CCCCC3)c2)cc(COC)c1O [Compound (C2)]
